According to patent publication EP3816157A1 (Guangxi Normal University, priority 2019, dated 2021):

Experiments:
Test in all cases: MTT inhibition test against cell growth
HL-7702 = format: cell-based
Experimental: (§1) The test selected human ovarian cancer cell SK-OV-3, liver cancer cell Hep-G2, gastric cancer cell MGC-803, bladder cancer cell T-24, cervical cancer cell HeLa-229, human large cell lung cancer cell NCI-H460 and human normal liver cell HL-7702, and all the used cell lines were placed in an RPMI-1640 or high-sugar DMEM culture solution containing 1% penicillin-streptomycin and 10% newborn fetal calf serum and cultured in an incubator at 37 °C and 5% CO2. The growths of the cells were observed discontinuously by an inverted microscope, and the culture solution was replaced periodically or digestion subcultured with 0.25% trypsin according to actual situations. […] The compounds each were formulated into 20 µmol/L of a solution, DMSO is used as a cosolvent with a final concentration of ≤1%; at the concentration, the inhibition degrees of the compounds against the growth of tumor cells were tested. […] After the individual tumor cells were attached to the wall, the working solutions of the tested compounds were added, and each compound is provided with quintuple holes in parallel whilst a corresponding control group (with a culture solution only containing tumor cells and the same equivalent of DMSO but without the tested compounds) is provided. […] The following equitation was utilized: […]

NCI-H460 = format: cell-based; conditions: human large cell lung cancer cell NCI-H460, 48 hours
Experimental: as §1

T-24 = format: cell-based, human; conditions: bladder cancer cell T-24, 48 hours
Experimental: as §1

HepG-2 = format: cell-based, human
Experimental: as §1

HeLa-229 = format: cell-based, human; conditions: cervical cancer cell HeLa-229, 48 hours
Experimental: as §1

MGC-803 = format: cell-based, human; conditions: gastric cancer cell MGC-803, 48 hours
Experimental: as §1

[1] = L02, human normal liver cell HL-7702, 48 hours
[2] = Homo sapiens, HepG2, liver cancer cell HepG-2, 48 hours

IC50 (NCI-H460) [µM] | IC50 (HeLa-229; Homo sapiens) [µM] | IC50 (MGC-803; Homo sapiens) [µM] | Structure (SMILES) | IC50 (HL-7702; human normal liver cell HL-7702, 48 hours) [µM] | IC50 (T-24) [µM] | IC50 (HepG-2; liver cancer cell HepG-2, 48 hours) [µM] | IC50 (HeLa-229) [µM] | IC50 (MGC-803) [µM] | IC50 (HL-7702; [1]) [µM] | IC50 (T-24; Homo sapiens) [µM] | IC50 (HepG-2; [2]) [µM]
16.1 ± 1.4 | > 20 | 18.8 ± 0.5 | O=Cc1c2ccccc2c(C=NNC2=NCCN2)c2ccccc12 [9-formyl-10-imidazolylanthrahydrazone] |  |  |  |  |  | 16.4 ± 2.78 | 13.9 ± 1.46 | 15.1 ± 1.69
14.5 ± 1.42 | 10.5 ± 1.52 | 9.48 ± 0.68 | O=S(=O)(O)c1ccc(N=Cc2c3ccccc3c(C=NNC3=NCCN3)c3ccccc23)cc1 [9-benzenesulfonic acid-10-imidazolylanthrahydrazone] |  |  |  |  |  | 11.3 ± 0.71 | 10.7 ± 0.56 | 12.7 ± 1.56

Structure (SMILES) | IC50 (NCI-H460) [µM] | IC50 (HeLa-229; Homo sapiens) [µM] | IC50 (MGC-803; Homo sapiens) [µM] | IC50 (HL-7702; human normal liver cell HL-7702, 48 hours) [µM] | IC50 (T-24) [µM] | IC50 (HepG-2; liver cancer cell HepG-2, 48 hours) [µM] | IC50 (HeLa-229) [µM] | IC50 (MGC-803) [µM] | IC50 (HL-7702; [1]) [µM] | IC50 (T-24; Homo sapiens) [µM] | IC50 (HepG-2; [2]) [µM]
N.N.[Cl][Pt][Cl] [cisplatin] | 18.3 ± 1.02 |  |  | 12.7 ± 1.27 | 14.8 ± 2.74 | 18.6 ± 0.78 | 13.2 ± 2.74 | 17.8 ± 2.5 |  |  | 
